CP(=O)(c1ccccc1)c1ccccc1
Conditions | solubility (mole fraction)
in benzene, 288.52 K | 0.0439
in benzene, 293.56 K | 0.0573
in benzene, 298.13 K | 0.0698
in benzene, 303.21 K | 0.0875
in benzene, 308.12 K | 0.102
in benzene, 312.55 K | 0.123
in benzene, 318.04 K | 0.156
in benzene, 323.17 K | 0.183
in ethyl acetate, 293.25 K | 0.0415
in ethyl acetate, 298.46 K | 0.0497
in ethyl acetate, 302.88 K | 0.0618
in ethyl acetate, 307.97 K | 0.0744
in ethyl acetate, 313.22 K | 0.0885
in ethyl acetate, 317.25 K | 0.104
in ethyl acetate, 322.14 K | 0.128
in ethyl acetate, 326.93 K | 0.15
in ethylbenzene, 293.35 K | 0.0183
in ethylbenzene, 298.04 K | 0.0224
in ethylbenzene, 303.12 K | 0.0304
in ethylbenzene, 308.33 K | 0.0393
in ethylbenzene, 312.8 K | 0.0464
in ethylbenzene, 317.51 K | 0.061
in ethylbenzene, 321.25 K | 0.0719
in ethylbenzene, 326.39 K | 0.0876
in m-xylene, 293.75 K | 0.0129
in m-xylene, 298.16 K | 0.0167
in m-xylene, 303.32 K | 0.0216
in m-xylene, 307.41 K | 0.0258
in m-xylene, 313 K | 0.0332
in m-xylene, 317.53 K | 0.0398
in m-xylene, 320.55 K | 0.0453
in m-xylene, 326.39 K | 0.0614
in o-xylene, 293.35 K | 0.0281
in o-xylene, 298.08 K | 0.0343
in o-xylene, 303.11 K | 0.0406
in o-xylene, 308.23 K | 0.0454
in o-xylene, 313.09 K | 0.0525
in o-xylene, 317.05 K | 0.0603
in o-xylene, 321.94 K | 0.071
in o-xylene, 328.07 K | 0.0821
in p-xylene, 293.65 K | 0.0131
in p-xylene, 298.19 K | 0.0175
in p-xylene, 303.31 K | 0.0219
in p-xylene, 308.42 K | 0.03
in p-xylene, 313.11 K | 0.036
in p-xylene, 317.38 K | 0.0442
in p-xylene, 320.55 K | 0.0539
in p-xylene, 326.44 K | 0.0679
in toluene, 293.35 K | 0.0227
in toluene, 298.16 K | 0.0287
in toluene, 303.08 K | 0.0386
in toluene, 307.11 K | 0.0498
in toluene, 312.12 K | 0.065
in toluene, 316.4 K | 0.0798
in toluene, 320.95 K | 0.0979
in toluene, 326.54 K | 0.135
